Data on three molecules can be found in US6989386B2, “Pharmaceutically active ornithine derivatives, ammonium salts thereof and methods of making same” (Dana-Farber Cancer Institute, priority 2002, dated 2006).

One data set concerns cell growth in culture. The note with it: reported, Rosowsky et al., J. Med. Chem. 1986; cited from earlier work.
Data set [1] concerns the target T1, dihydrofolate reductase (DHFR) (Mus musculus, UniProt P00375).
T1 sequence (P00375 1-187): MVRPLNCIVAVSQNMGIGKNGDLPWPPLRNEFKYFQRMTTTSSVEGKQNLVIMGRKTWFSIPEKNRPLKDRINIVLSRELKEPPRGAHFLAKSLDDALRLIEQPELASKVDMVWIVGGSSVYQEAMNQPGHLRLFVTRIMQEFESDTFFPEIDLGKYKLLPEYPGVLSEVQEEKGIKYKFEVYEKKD
The note with it: reported, Rosowsky et al., J. Med. Chem. 1986; cited from earlier work.

The test system of data set [2] is folylpolyglutamate synthetase (FPGS). The note with it: reported, Rosowsky et al., J. Med. Chem. 1986; cited from earlier work.

Regarding `Nc1nc(N)c2nc(CNc3ccc(C(=O)N[C@@H](CCCNC(=O)c4ccccc4C(=O)O)C(=O)O)cc3)cnc2n1` [compound 7, N^α-(4-Amino-4-deoxypteroyl)-N^δ-hemiphthaloyl-L-ornithine], where the note is “dilute ammonium hydroxide solution”, the “Stability when dissolved in dilute ammonium hydroxide” value is on record as “relatively stable”.

Turning to `N.N.Nc1nc(N)c2nc(CNc3ccc(C(=O)N[C@@H](CCCNC(=O)c4ccccc4C(=O)O)C(=O)O)cc3)cnc2n1` [compound 8, N^α-(4-Amino-4-deoxypteroyl)N^δ-hemiphthaloyl-L-ornithine ammonium salt], the “Product decomposition on lyophilization of the ammonium hydroxide solution” value (lyophilization of dilute ammonium hydroxide solution) is “minimal”.

On to `NCCC[C@H](NC(=O)c1ccc(NCc2cnc3nc(N)nc(N)c3n2)cc1)C(=O)O` [APA-L-Orn, N^α-(4-amino-4-deoxypteroyl)-L-ornithine], for which the “Inhibition of cell growth in culture” value in the data set with cell growth in culture was “relatively inactive”. For the same molecule, the “Inhibition of dihydrofolate reductase (DHFR)” value in data set [1] is “potent inhibitor”. Moreover, in data set [2], the “Inhibition of folylpolyglutamate synthetase (FPGS)” value is “potent inhibitor”.
